Test results from patent US9056865B2, “Pyridine-2-derivatives as smoothened receptor modulators” (Pfizer Inc., priority 2010, dated 2015).
Where two headings read alike, the source gives them in different places.

Legend:
human Smo = human Smo (Homo sapiens (Human), UniProt Q99835); assay: Smo radioligand competition binding assay
Method in brief: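 Membranes from HEK293 cells expressing surface human Smo 181-781 (40 μg protein/well) incubated 2 h at room temperature with test compound and tritiated Smo antagonist (3 nM), pH 7.5 Tris buffer; filtration and scintillation counting. Non-specific binding defined with 30 μM cold antagonist; IC50 from four-parameter sigmoidal fit.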

[1] = Assessment of brain penetration in rats; format: in vivo; settings: rat
Method: Assessment of Brain Penetration of A-116 in Rats
An in vivo study in rats was conducted to assess the extent of brain penetration of A-116. In this study, approximately 10-week-old (250 grams body weight) Wistar rats were dosed once with 10 mg/kg of A-116 subcutaneously. Three rats per group were euthanized 1 hour, 4 hours, and 7 hours post dose. The plasma, the whole brain, and the cerebral spinal fluid (CSF) were collected to determine the tissue concentrations using HPLC-MS/MS. At 1 hour, 4 hours and 7 hours, the respective brain concentrations were 201±52 ng/g, 224±231 ng/g, and 28 ng/g of tissue. The total plasma concentrations were 2240±296 ng/mL, 2220±1780 ng/mL, and 287±75 ng/mL at 1 hour, 4 hours and 7 hours, respectively. To calculate the unbound plasma concentrations, the total plasma concentrations were multiplied by 0.067, a previously determined unbound fraction of rat plasma protein binding. The resulting unbound plasma concentrations were 150±20 ng/mL (1 hour), 149±119 ng/mL (4 hours), and 19.2±5.0 ng/mL (7 hours). The respective CSF concentrations were 64.4±12.0 ng/mL, 72.1±71.9 ng/mL, and 3.9±2.3 ng/mL at 1 hour, 4 hours, and 7 hours post dose. […] To determine the extent of brain penetration, a ratio of the CSF concentration to the unbound plasma concentration was calculated. At 1 hour, 4 hours, and 7 hours, the ratios were 0.43±0.03, 0.44±0.1, and 0.19±0.06, respectively.

[2] = rat plasma protein binding; format: in vitro ADME; settings: previously determined

Chain of human Smo (Q99835 181-787): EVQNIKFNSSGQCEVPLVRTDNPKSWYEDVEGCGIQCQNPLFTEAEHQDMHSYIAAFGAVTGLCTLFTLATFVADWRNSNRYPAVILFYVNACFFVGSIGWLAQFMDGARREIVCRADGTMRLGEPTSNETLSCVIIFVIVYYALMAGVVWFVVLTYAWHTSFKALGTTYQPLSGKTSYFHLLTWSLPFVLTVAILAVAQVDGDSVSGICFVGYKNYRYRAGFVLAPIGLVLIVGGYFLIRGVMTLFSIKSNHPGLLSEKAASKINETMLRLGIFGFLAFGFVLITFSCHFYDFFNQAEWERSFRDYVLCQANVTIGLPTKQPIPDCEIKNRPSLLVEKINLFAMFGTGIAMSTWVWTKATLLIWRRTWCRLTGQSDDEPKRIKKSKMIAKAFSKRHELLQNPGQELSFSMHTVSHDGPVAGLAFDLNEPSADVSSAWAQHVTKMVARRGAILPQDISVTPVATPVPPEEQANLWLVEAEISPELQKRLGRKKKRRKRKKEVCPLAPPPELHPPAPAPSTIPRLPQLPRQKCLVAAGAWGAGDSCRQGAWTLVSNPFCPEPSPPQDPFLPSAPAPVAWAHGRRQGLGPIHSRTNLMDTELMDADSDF

Cc1cnc(-c2cc(N3CCN(C(=O)CCS(C)(=O)=O)CC3)ncc2Cl)c(C)c1 [Example A-116, 5′-chloro-3,5-dimethyl-2′-{4-[3-(methylsulfonyl)propanoyl]piperazin-1-yl}-2,4′-bipyridine]
IC50 (human Smo): 6.8 nM
inhibition at 0.05 µM (human Smo; 0.05 μM test compound, read-out: Smo % inh. @ 0.05 μM): 101%
Kp at 1 h ([1]; Wistar, CSF / unbound plasma, subcutaneous, 10 mg/kg, 1 hour, read-out: ratio of the CSF concentration to the unbound plasma concentration): 0.43 ± 0.03
Kp at 4 h ([1]; Wistar, CSF / unbound plasma, subcutaneous, 10 mg/kg, 4 hours, read-out: ratio of the CSF concentration to the unbound plasma concentration): 0.44 ± 0.1
Kp at 7 h ([1]; Wistar, CSF / unbound plasma, subcutaneous, 10 mg/kg, 7 hours, read-out: ratio of the CSF concentration to the unbound plasma concentration): 0.19 ± 0.06
Kp ([1]; Wistar, CSF / unbound plasma, subcutaneous, 10 mg/kg, rats, within 4 hours post dose, read-out: unbound compound in the plasma able to cross the blood brain barrier): ~0.4
concentration at 1 h ([1]; Wistar, subcutaneous, 10 mg/kg, total plasma concentration multiplied by 0.067, 1 hour, read-out: unbound plasma concentration): 150 ± 20 ng/mL
concentration at 4 h ([1]; Wistar, subcutaneous, 10 mg/kg, total plasma concentration multiplied by 0.067, 4 hours, read-out: unbound plasma concentration): 149 ± 119 ng/mL
concentration at 7 h ([1]; Wistar, subcutaneous, 10 mg/kg, total plasma concentration multiplied by 0.067, 7 hours, read-out: unbound plasma concentration): 19.2 ± 5 ng/mL
concentration at 1 h ([1]; CSF, sc, Wistar rats, 10 mg/kg subcutaneously, 1 hour, read-out: CSF concentration): 64.4 ± 12 ng/mL
concentration at 4 h ([1]; CSF, sc, Wistar rats, 10 mg/kg subcutaneously, 4 hours, read-out: CSF concentration): 72.1 ± 71.9 ng/mL
concentration at 7 h ([1]; CSF, sc, Wistar rats, 10 mg/kg subcutaneously, 7 hours, read-out: CSF concentration): 3.9 ± 2.3 ng/mL
concentration at 1 h ([1]; brain, sc, Wistar rats, 10 mg/kg subcutaneously, 1 hour, read-out: brain concentration): 201 ± 52 ng/g
concentration at 4 h ([1]; brain, sc, Wistar rats, 10 mg/kg subcutaneously, 4 hours, read-out: brain concentration): 224 ± 231 ng/g
concentration at 7 h ([1]; brain, sc, Wistar rats, 10 mg/kg subcutaneously, 7 hours, read-out: brain concentration): 28 ng/g
concentration at 1 h ([1]; plasma, sc, Wistar rats, 10 mg/kg subcutaneously, 1 hour, read-out: total plasma concentration): 2240 ± 296 ng/mL
concentration at 4 h ([1]; plasma, sc, Wistar rats, 10 mg/kg subcutaneously, 4 hours, read-out: total plasma concentration): 2220 ± 1780 ng/mL
concentration at 7 h ([1]; plasma, sc, Wistar rats, 10 mg/kg subcutaneously, 7 hours, read-out: total plasma concentration): 287 ± 75 ng/mL
fraction unbound [2]: 0.067
